In paper PMC6154738, “Anti-Onchocerca and Anti-Caenorhabditis Activity of a Hydro-Alcoholic Extract from the Fruits of Acacia nilotica and Some Proanthocyanidin Derivatives” (Molecules : A Journal of Synthetic Chemistry and Natural …, 2017):
≈ marks a conversion by molar mass, not a printed value. Read-outs that look alike come from different tables or passages of the source.

Assays:
O. ochengi males = test: microbe, parasite or virus in culture; set-up: species or system Onchocerca ochengi
Excerpt: The adult male worms were isolated as previously describe by Ndjonka et al. from fresh pieces of cattle skin (cow-udder) with palpable nodules obtained from the communal slaughter house of Ngaoundere in the Adamawa region of Cameroon. Nodules removed from the skin were brought to the laboratory, washed, drained and sterilized with 70% ethanol for dissection. After dissection of nodules, O. ochengi were extracted, isolated and washed three times in sterile phosphate-buffered saline (PBS). To analyze the anthelmintic activity of extract, fractions and pure compounds, the worms were incubated at 37 °C.
(§1) Adult worms (six individuals per well for males and one per well for the female) and Mf were washed twice and were subsequently transferred to RPMI-1640 medium supplemented with L-glutamine, 100 U/mL penicillin and 100 µg/mL streptomycin and incubated at 37 °C in 24-well plates (96-well plate for Mf) with different concentrations of the drugs tested. Worm mortality was checked by observation under the binocular microscope after 48 h. After shaking, immotile and fully-elongated worms were considered to be dead. All tests were done in three independent triplicate determinations.

O. ochengi microfilariae = test: microbe, parasite or virus in culture; set-up: species or system Onchocerca ochengi
Description: Microfilariae were isolated as describe by Cho-Ngwa et al. and Ndjonka et al.. About 10 skin snips were obtained from different locations of the skin. The skin snips were then incubated at 37 °C in PBS to let Mf emerge. The highly motile Mf were concentrated by centrifugation at 400× g for 10 min and quantified. The Mf were incubated at 37 °C with the crude extract, fractions and pure compounds.
as §1

[1] = tested on: C. elegans DA1316 (avr-14(ad1302) I avr-15(ad1051) glc-1(pk54)); test: microbe, parasite or virus in culture; conditions: for LC50: Caenorhabditis elegans, 48 h
Description: (§2) All strains were obtained from the Caenorhabditis Genetic Centre (CGC, Minneapolis, MN, USA). Strains were maintained at 20 °C on nematode growth medium (NGM). All worms were age-synchronized and obtained from eggs that were isolated by bleaching.
(§3) Young adult (L4 stage) worms were used to assess drug lethality. Monitored endpoint was 48 h mortality. Tests were performed in 24-well plates. Five hundred (500) microliters of test solution, which is M9-buffer (3 g KH2PO4, 6 g Na2HPO4, 5 g NaCl, 0.25 g MgSO4.7H2O, in 1 L of water after been autoclaved supplemented with 2% glucose, 0.5% cholesterol), were distributed in 24-well plates. The volume of M9-buffer equivalent to the drug to be added for each drug final concentration (in each test, three to six concentrations were used) was removed. Untreated worms in M9-buffer were used as negative control. […] Crude extract fraction (stock solution at 100 mg/mL) and pure compound (stock solution at 100 mg/mL) previously dissolved in M9-buffer were then added in well plates at increasing concentration (varying from 0 to 1000 or 1500 µg/mL for extract and fractions; 0 to 100 or 150 µg/mL). The young adult (10 to 15 ± 2) from the axenic culture (without food source) were then added at the test solution. […] Treatments were replicated three times.

C. elegans N2 Bristol WT = test: microbe, parasite or virus in culture
Description: as §2, §3

[2] = tested on: C. elegans VC722 (glc-2(ok1047) I); test: microbe, parasite or virus in culture; conditions: for LC50: Caenorhabditis elegans, 48 h
Description: as §2, §3

Caco-2 cells [3] = test: In vitro cytotoxicity (MTT) and CC50 determination; format: cell-based
Description: (§4) Cell culture: […] cells at Passage 70 were kindly provided by Prof. Hensel, Institute of Pharmaceutical Biology and Phytochemistry, University of Münster, and were cultured as previously describe by Zumdick et al..
(§5) Cytotoxicity test: The cytotoxicity assays were performed according to the method of Rahman et al.. Briefly, 1.5 × 10^4 viable cells/well were seeded in a 96-well plate and incubated for 24 to 48 h. […] DMEM samples were used as the negative control. […] The medium was removed, and formazan, generated by the activity of dehydrogenases, was solubilized with 70 µL of acidified isopropanol (0.4 M HCl). The amount of MTT-formazan that is directly proportional to the number of living cells was determined by measuring the optical density (OD) at 540 nm using a spectrophotometer. All controls used were treated equally. As control and to determine 100% growth, Caco-2 cells were grown in the absence of drugs so as to calculate cell viability. All determinations were performed in triplicate. […] The selectivity index (SI) values were calculated as the ratio: SI = CC50 of drug on Caco2/LC50 of drug on worm.

O. ochengi females = test: microbe, parasite or virus in culture; set-up: species or system Onchocerca ochengi
Description: The adult female worms were isolated by digestion of the nodules with collagenase at 37 °C. The female worms were cultured in a CO2-incubator [67]. For anthelmintic activity, they were incubated with the crude extracts, fractions and pure compounds.
as §1

O. ochengi [4] = conditions: read-out: LC50 on O. ochengi; stated in the introduction, no reference given; cited from earlier work
Caco-2 cells [5] = tested on: Caco-2 cells; set-up: method as in PMID 22776719; conditions: at 127 µg/mL; cited from earlier work
O. ochengi [6] = test: Anti-Onchocerca activity, all forms of the parasite (summary statements); conditions: read-out: LC50 against O. ochengi (all three forms)
Description: as §1

[7] = tested on: C. elegans CB211 (lev-1(e211) IV); test: microbe, parasite or virus in culture; conditions: Caenorhabditis elegans, 48 h
Description: as §2, §3

[8] = tested on: C. elegans CB3474 (ben-1(e1880) III); test: microbe, parasite or virus in culture; conditions: Caenorhabditis elegans, 48 h
Description: as §2, §3

[9] = tested on: C. elegans ZZ16 (lev-9(x16) X); test: microbe, parasite or virus in culture; conditions: Caenorhabditis elegans, 48 h
Description: as §2, §3

Wistar rats = test: Acute oral toxicity on rats
Description: Adult Wistar rats (Rattus norvegicus), males aged 7 to 8 weeks and weighing 150 to 200 g, used for the experiments were obtained from LANAVET (Laboratoire National Vétérinaire, Garoua, Cameroon). The rats were acclimatized for one week in the Veterinary Research Laboratory of the Institute of Agricultural Research for Development, Wakwa, Cameroon, before initiating experiments. Animals were housed in groups of three (one group for the negative control, six groups for each drug at the first phase, six others at the second phase) under ambient temperatures (23 °C ± 1 °C) with relative humidity 55 ± 5% and 12 h light/dark cycle in polycarbonate cages. […] They were monitored by a veterinarian for health status.
Acute oral toxicity (LD50, that is the dose that kills 50% of animals of the tested group) was measured using the method of the OECD guidelines for the testing of chemicals [56] following the European Community guidelines for the protection of animals used in experiments [69] and respecting the 3Rs (Replacement, Refinement, Reduction) [70]. Drugs in distilled water were orally administered separately at doses of 10 mg/kg, 100 mg/kg and 1000 mg/kg body weight. The negative controls were distilled water-administered rats. They were given to three groups of three rats each and observed for 24 h. […] The test was done at a single oral dose for each rat in a 5 mL/kg volume. The experimental animals were starved for 24 h before and 4 h after treatment. […] The appearance of toxic symptoms, such as behavioral changes, locomotion, convulsions and mortality, was observed and recorded. Animals were observed constantly for the first 30 min after administration and, thereafter, every 4 h up to 24 h and, subsequently, once a day for up to 14 days.

[10] = In vitro cytotoxicity (MTT) and CC50 determination; format: cell-based; conditions: human
Description: as §4, §5

[11] = Caco-2, CC50 after 48 h calculated in µM, read-out: Cytotoxicity CC50, Caco-2 (in brackets) (converted)
[12] = Onchocerca ochengi, 48 h, read-out: LC50/48 h
[13] = Onchocerca ochengi, 48 h, read-out: LC50/48 h (in brackets)
[14] = SI = CC50 on Caco-2/LC50 on worm
[15] = read-out: LC50/48 h (in brackets)

Molecule Ivermectin [reference compound] has an LC50 (O. ochengi males; O. ochengi males, 48 h, calculated in µM, read-out: LC50/48 h (in brackets) (converted)) of 1.3 µM, an LC50/48 h (O. ochengi males; O. ochengi males, 48 h, mean ± SD) of 1.2 ± 0.5 µg/mL and an LC50 (O. ochengi microfilariae; O. ochengi microfilariae, 48 h, calculated in µM, read-out: LC50/48 h (in brackets) (converted)) of 1.7 µM. For the same molecule, the LC50/48 h (O. ochengi microfilariae; O. ochengi microfilariae, 48 h, mean ± SD) was 1.5 ± 0.0 µg/mL, the LC50/48 h ([1]; C. elegans DA1316 (ivermectin-resistant)) was greater than 100 µg/mL and the LC50/48 h (C. elegans N2 Bristol WT; C. elegans WT, 48 h, mean ± SD) was 1.2 ± 0.1 µg/mL. For the same molecule, the LC50 (C. elegans N2 Bristol WT; read-out: LC50/48 h (in brackets), C. elegans WT, 48 h, calculated in µM) was 1.3 µM, the LC50/48 h ([2]; C. elegans VC722 (ivermectin-resistant)) was greater than 100 µg/mL and the CC50 (Caco-2 cells [3]; [11]) was 140 µM. The “Cytotoxicity, means CC50 ± SD, Caco-2” value (Caco-2 cells [3]; Caco-2, MTT) was 28.7 ± 0.7 µg/mL, the LC50 (O. ochengi females; O. ochengi females, 48 h, calculated in µM, read-out: LC50/48 h (in brackets) (converted)) was 1.7 µM and the LC50/48 h (O. ochengi females; O. ochengi females, 48 h, mean ± SD) was 1.5 ± 0.3 µg/mL. For the same molecule, the LC50 (O. ochengi [4]) was 1.7 µM.
For procyanidin, the “Reduction of cell viability” value (Caco-2 cells [5]) is given as 15%.
With `O=C(OC1Cc2c(O)cc(O)cc2OC1c1ccc(O)c(O)c1)c1cc(O)c(O)c(O)c1` (single isomer, unassigned; (-)) [ECG, (−)-epicatechin-3-O-gallate] the LC50 (O. ochengi [6]) was less than 2.5 µg/mL, the LC50 (O. ochengi males; [12]) was 2.1 ± 0.3 µg/mL and the LC50 (O. ochengi males; [13]) was 4.7 µM. For the same molecule, the “Selectivity Index (SI) O. ochengi Males” value (O. ochengi males; [14]) was 32.2, the LC50 (O. ochengi microfilariae; [12]) was 1 ± 0.4 µg/mL and the LC50 (O. ochengi microfilariae; [13]) was 2.2 µM. For the same molecule, the “Selectivity Index (SI) O. ochengi Microfilariae” value (O. ochengi microfilariae; [14]) was 67.6, the LC50 ([7]; read-out: LC50/48 h) was 41.7 ± 1.2 µg/mL and the LC50 [7, 15] was 89.3 µM. For the same molecule, the LC50 ([8]; read-out: LC50/48 h) was 19.6 ± 0.8 µg/mL, the LC50 [8, 15] was 44.2 µM and the LC50 ([9]; read-out: LC50/48 h) was 39.5 ± 0.9 µg/mL. It also gave an LC50 [9, 15] of 76.4 µM, an LC50 ([1]; read-out: LC50/48 h) of 27.4 ± 1.1 µg/mL and an LC50 [1, 15] of 61.9 µM. For the same molecule, the LC50 (C. elegans N2 Bristol WT; Caenorhabditis elegans, 48 h, read-out: LC50/48 h) was 33.8 ± 2.7 µg/mL, the “Selectivity Index (SI) C. elegans Wild Type” value (C. elegans N2 Bristol WT; [14]) was 2.0 and the LC50 ([2]; read-out: LC50/48 h) was 27.2 ± 1.4 µg/mL. The LC50 [2, 15] was 61.4 µM, the “Mortality of rats: rat number end/start” value (Wistar rats; Phase 1, 10 mg/kg single oral dose) was 0/3 and the “Mortality of rats: rat number end/start” value (Wistar rats; Phase 1, 100 mg/kg single oral dose) was 0/3. The “Mortality of rats: rat number end/start” value (Wistar rats; Phase 1, 1000 mg/kg single oral dose) was 0/3, the “Mortality of rats: rat number end/start” value (Wistar rats; Phase 2, 1500 mg/kg single oral dose) was 0/3 and the “Mortality of rats: rat number end/start” value (Wistar rats; Phase 2, 3000 mg/kg single oral dose) was 0/3. The “Mortality of rats: rat number end/start” value (Wistar rats; Phase 2, 5000 mg/kg single oral dose) was 0/3, the CC50 at 48 h [10, 11] was 153 µM and the CC50 at 72 h ([10]; Caco-2, MTT, read-out: Cytotoxicity, means CC50 ± SD, Caco-2) was 67.6 ± 0.5 µg/mL (≈ 153 µM). For the same molecule, the LC50 (O. ochengi females; [12]) was 2.1 ± 0.6 µg/mL, the LC50 (O. ochengi females; [13]) was 4.7 µM and the “Selectivity Index (SI) O. ochengi Females” value (O. ochengi females; [14]) was 32.2.
